Results reported in patent US20250051275A1, “PYRROLE DERIVATIVE OR PHARMACEUTICALLY OR SITOLOGICALLY ACCEPTABLE SALTS THEREOF, AND COMPOSITION FOR PREVENTION, AMELIORATION OR TREATMENT OF GASTROINTESTINAL DISORDERS COMPRISING SAME AS ACTIVE INGREDIENT” (HANA PHARM CO., LTD., priority 2021, published 2025).
Read-outs that look alike come from different tables or passages of the source.

What was measured:
[1] = Storage stability (related substance identification test); type: physicochemical; conditions: for storage stability: stored at −2 to 8° C., in % (unit assumed)
Excerpt: An attempt was made to evaluate the storage stability over time of the compound of Example 7 of the present invention and the compound of Comparative Example 1 (which is the deuterium-unsubstituted form of the compound of Example 7) depending on the presence of deuterium substitution.

[2] = tested on: human gastric cancer cells (AGS Cells); test: MTS assay, inhibition of proliferation of human gastric cancer cells (AGS Cells); type: cell-based; conditions: 48 hours
Method: To examine the effect of inhibiting the proliferation of the compounds indicated in the examples of the present invention on human gastric cancer cells (AGS Cells), MTS Assay experiments were in vitro performed. AGS cells were cultured in a 5% CO2 incubator at 37° C. by using RPMI 1640 medium containing 1% penicillin-streptomycin and 10% fetal bovine serum. The cells in culture were separated with using 0.25% Trypsin-0.02% EDTA every 3 to 4 days and subcultured.
For the experiment, the cultured cells were treated with 0.25% Trypsin-0.02% EDTA solution, the suspended cells were centrifuged at 1,200 rpm for 5 minutes, the supernatant was discarded, a culture medium was added thereto, and a cell suspension was made with the culture medium. Using a hemocytometer, 10,000 cells per well were dispensed into 96-well plates and cultured. After 24 hours, when the cells attached to the plate, the culture medium was discarded, and the cells were treated with new culture media prepared by concentration (test concentrations: 500 μm, 250 μm, 125 μm, 63 μm, 31 μm, 16 μm, 8 μm, 4 μm, and 2 μm) and cultured in a CO2 incubator for 48 hours. After treating with an MTS solution, the cells were incubated in a CO2 incubator for 1 hour, and the absorbance was measured at 490 nm by using a microplate reader device. The cell proliferation inhibition rate was expressed as IC50, which is 50% inhibition of cell proliferation, using GraphPad Prism 5.
In Table 2 below, the IC50 value is indicated as “+++” for 0 to 50 μM, “++” for 51 to 100 μM, and “+” for 101 to 400 μM.

[3] = target: proton pump (H+/K+-ATPase) (Sus scrofa (Pig), UniProt P19156); test: Inhibitory activity on proton pump (H+/K+-ATPase) activity; type: biochemical; conditions: porcine gastric mucosal microsomes, 5 mM KCl, pH 6.4
proton pump (H+/K+-ATPase), sequence (P19156 2-1034): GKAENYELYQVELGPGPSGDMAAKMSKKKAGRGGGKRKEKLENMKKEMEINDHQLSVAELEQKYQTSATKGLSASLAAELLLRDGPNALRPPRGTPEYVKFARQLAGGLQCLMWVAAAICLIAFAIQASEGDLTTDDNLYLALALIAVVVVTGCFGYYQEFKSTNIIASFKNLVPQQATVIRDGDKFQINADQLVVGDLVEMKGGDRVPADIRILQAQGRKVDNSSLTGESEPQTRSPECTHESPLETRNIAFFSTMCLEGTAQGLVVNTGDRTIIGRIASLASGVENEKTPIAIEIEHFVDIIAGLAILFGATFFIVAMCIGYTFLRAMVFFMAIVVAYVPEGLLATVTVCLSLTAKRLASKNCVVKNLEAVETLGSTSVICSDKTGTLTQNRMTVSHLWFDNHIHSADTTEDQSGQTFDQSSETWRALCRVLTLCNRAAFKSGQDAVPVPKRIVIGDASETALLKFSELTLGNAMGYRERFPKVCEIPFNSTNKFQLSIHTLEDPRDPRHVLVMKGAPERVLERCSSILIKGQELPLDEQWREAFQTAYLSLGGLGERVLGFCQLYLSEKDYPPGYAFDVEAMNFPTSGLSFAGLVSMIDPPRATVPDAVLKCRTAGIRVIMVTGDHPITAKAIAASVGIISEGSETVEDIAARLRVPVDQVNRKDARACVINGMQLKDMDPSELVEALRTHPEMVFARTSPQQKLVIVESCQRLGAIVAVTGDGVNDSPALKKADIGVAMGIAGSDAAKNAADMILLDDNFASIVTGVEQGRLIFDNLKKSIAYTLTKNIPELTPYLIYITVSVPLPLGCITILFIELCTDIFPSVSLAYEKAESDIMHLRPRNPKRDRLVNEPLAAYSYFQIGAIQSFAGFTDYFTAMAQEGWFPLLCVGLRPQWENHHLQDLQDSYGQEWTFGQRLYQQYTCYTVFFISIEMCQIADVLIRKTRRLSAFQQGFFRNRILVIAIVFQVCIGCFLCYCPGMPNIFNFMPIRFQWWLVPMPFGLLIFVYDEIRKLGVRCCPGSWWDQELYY
proton pump (H+/K+-ATPase), sequence (P18434 whole entry partner): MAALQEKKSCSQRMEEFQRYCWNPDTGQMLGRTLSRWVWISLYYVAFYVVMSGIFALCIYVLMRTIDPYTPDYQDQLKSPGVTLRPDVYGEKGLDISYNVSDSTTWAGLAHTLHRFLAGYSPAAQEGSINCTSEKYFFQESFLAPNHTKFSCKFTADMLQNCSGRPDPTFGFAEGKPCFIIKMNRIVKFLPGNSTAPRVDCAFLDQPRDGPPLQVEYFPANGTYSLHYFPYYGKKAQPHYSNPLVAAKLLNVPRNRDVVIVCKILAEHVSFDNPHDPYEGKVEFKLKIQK
Method: The compounds indicated in the above examples were tested for their inhibitory activity on proton pump (H+/K+-ATPase) activity as follows by applying the method disclosed in the literature. According to the methods of Nobuyuki Takahashi and Yukinori Take [J Pharmacol Exp Ther. 2018 February; 364(2):275-286], the gastric mucosal microsome fraction was isolated from the porcine stomach. The stomach isolated from the pig was washed first with tap water, only the fundus was cut, and then washed (a second time) with cold PBS. The gastric mucosa was separated by scraping, homogenized with 250 mM sucrose solution, and centrifuged at 20,000 g at 4° C. for 30 minutes. Only the supernatant was centrifuged at 115,000 g at 4° C. for 30 minutes, and the precipitate was suspended in 250 mM sucrose solution, added to cover with 7% Ficoll solution, and centrifuged at 135,000 g at 4° C. for 60 minutes. The microsome fraction formed at the interface was recovered and suspended in 250 mM sucrose solution, and centrifuged at 135,000 g, 4° C. for 60 minutes, and the precipitate was dissolved in 0.9% NaCl. The isolated gastric mucosal microsome fraction was quantified by using the Bicinchoninic Acid (BCA) kit (Thermo).
60 μl of enzyme reaction solution (a test compound at a given concentration, […] of gastric mucosal microsomes, 3 mM of MgSO4, 5 mM of KCl, 40 mM of Tris-HCl pH 6.4, and 0.5 mM of adenosine triphosphate) was added to each well of a 96-well plate and reacted at 37° C. for 60 minutes, and 30 μl of 10% SIDS was added to stop the enzyme reaction. 200 μl of detection solution (in which 10% L-ascorbic acid with pH 5.0 was mixed with 35 mM of ammonium molybdate tetrahydrate/15 mM of zinc acetate with pH 5.0 at the ratio of 4:1) was added and reacted at 37° C. for 30 minutes, and the absorbance value was measured at 750 nm by using a microplate reader (MULTISKAN GO, Thermo). The inhibition rate of proton pump activity was expressed as I050, which is 50% inhibition of enzyme activity, by using GraphPad Prism 5. In Table 1 below, an I050 value of 100 nM or less is indicated by +++, an I050 value of 101 to 200 nM is indicated by ++, and an I050 value of above 200 nM is indicated by +.

[4] = Homo sapiens, read-out: Proliferation inhibitory effect of gastric cancer cells (IC50)
[5] = Homo sapiens, read-out: Proliferation inhibitory effect of gastric cancer cells (IC50, μM), class symbol
[6] = read-out: Proton pump inhibitory activity (IC50)
[7] = read-out: Proton pump inhibitory activity (IC50, nM), class symbol

Structure (SMILES) | IC50 [2, 4] [µM] | IC50 [2, 5] [µM] | IC50 [3, 6] [nM] | IC50 [3, 7] [nM] | further results
CNCc1cc(-c2ccccc2F)n(S(=O)(=O)c2ccc(F)cc2)c1 [Comparative Example 1, reference compound] | – | – | – | – | storage stability, Results ([1]; stored at −2 to 8° C. for 3 months): Unstable; storage stability ([1]; 1st week): 90.61; storage stability ([1]; 2nd week): 81.40; storage stability ([1]; 3 months): 53.8; storage stability ([1]; 3rd week): 76.47; storage stability ([1]; 4th week): 70.39; storage stability ([1]; Initial): 97.99
COc1ccc2nc([S@@+]([O-])Cc3ncc(C)c(OC)c3C)[nH]c2c1 [Control Drug 2 (Esomeprazole), 6-methoxy-2-[(S)-(4-methoxy-3,5-dimethylpyridin-2-yl)methylsulfinyl]-1H-benzimidazole, reference compound] | 194 | 101 to 400 | – | – | –
N.N.[Cl][Pt][Cl] [Control Drug 3 (Cisplatin), diamminedichloridoplatinum(II), reference compound] | – | – | – | – | IC50 ([2]; read-out: Proliferation inhibitory effect of gastric cancer cells (IC50)): 19.2 µM; IC50 ([2]; read-out: Proliferation inhibitory effect of gastric cancer cells (IC50, μM), class symbol): < 50 µM
[2H]C([2H])([2H])NCc1cc(-c2ccccc2F)n(S(=O)(=O)c2ccc(OC)cc2)c1 [Example 3, N-((5-(2-fluorophenyl)-1-((4-methoxyphenyl)sulfonyl)-1H-pyrrol-3-yl)methyl)methan-d3-amine] | 3.5 | < 50 | 48 | ≤ 100 | –
[2H]C([2H])([2H])NCc1cc(-c2ccccc2F)n(S(=O)(=O)c2ccc(OC(F)(F)F)cc2)c1 [Example 8, N-((5-(2-fluorophenyl)-1-((4-(trifluoromethoxy)phenyl)sulfonyl)-1H-pyrrol-3-yl)methyl)methan-d3-amine] | 12.2 | < 50 | 51 | ≤ 100 | –
[2H]C([2H])([2H])NCc1cc(-c2cccc(F)c2)n(S(=O)(=O)c2ccc(OC)cc2)c1 [Example 11, N-((5-(3-fluorophenyl)-1-((4-methoxyphenyl)sulfonyl)-1H-pyrrol-3-yl)methyl)methan-d3-amine] | – | – | 76 | ≤ 100 | –
[2H]C([2H])([2H])NCc1cc(-c2cccc(F)c2)n(S(=O)(=O)c2ccc(C#N)cc2)c1 [Example 22, 4-((2-(3-fluorophenyl)-4-(((methyl-d3)amino)methyl)-1H-pyrrol-1-yl)sulfonyl)benzonitrile] | 22.6 | < 50 | – | – | –
[2H]C([2H])([2H])NCc1cn(S(=O)(=O)c2ccc(OC)nc2)c(-c2ccc(F)cc2F)c1OC [Example 37, N-((5-(2,4-difluorophenyl)-4-methoxy-1-((6-methoxypyridin-3-yl)sulfonyl)-1H-pyrrol-3-yl)methyl) methane-d3-amine] | – | – | 88 | ≤ 100 | –
[2H]C([2H])([2H])NCc1cn(S(=O)(=O)c2cccnc2)c(-c2c(F)cc(F)cc2F)c1OC [Example 39, N-((4-methoxy-1-(pyridin-3-ylsulfonyl)-5-(2,4,6-trifluorophenyl)-1H-pyrrol-3-yl)methyl)methan-d3-amine] | – | – | 38 | ≤ 100 | –
[2H]C([2H])([2H])NCc1cn(S(=O)(=O)c2ccc(OC)nc2)c(-c2c(F)cc(F)cc2F)c1OC [Example 40, N-((4-methoxy-1-((6-methoxypyridin-3-yl)sulfonyl)-5-(2,4,6-trifluorophenyl)-1H-pyrrol-3-yl)methyl)methane-d3-amine] | – | – | 64 | ≤ 100 | –

Second part, led by results:

IC50 [2, 4] [µM] | IC50 [2, 5] [µM] | IC50 [3, 6] [nM] | IC50 [3, 7] [nM] | Structure (SMILES) | further results
17.5 | < 50 | 68 | ≤ 100 | [2H]C([2H])([2H])NCc1cc(-c2ccccc2F)n(S(=O)(=O)c2ccc(C)cc2)c1 [Example 2, N-((5-(2-fluorophenyl)-1-tosyl-1H-pyrrol-3-yl)methyl)methan-d3-amine] | –
32.7 | < 50 | 90 | ≤ 100 | [2H]C([2H])([2H])NCc1cc(-c2ccccc2F)n(S(=O)(=O)c2ccc(C#N)cc2)c1 [Example 4, 4-((2-(2-fluorophenyl)-4-(((methyl-d3)amino)methyl)-1H-pyrrol-1-yl)sulfonyl)benzonitrile] | –
– | – | 36 | ≤ 100 | [2H]C([2H])([2H])NCc1cc(-c2ccccc2F)n(S(=O)(=O)c2ccc(Br)cc2)c1 [Example 5, N-((1-((4-bromophenyl)sulfonyl)-5-(2-fluorophenyl)-1H-pyrrol-3-yl)methyl)methan-d3-amine] | –
21.7 | < 50 | 26 | ≤ 100 | [2H]C([2H])([2H])NCc1cc(-c2ccccc2F)n(S(=O)(=O)c2ccc(Cl)cc2)c1 [Example 6, N-((1-((4-chlorophenyl)sulfonyl)-5-(2-fluorophenyl)-1H-pyrrol-3-yl)methyl)methan-d3-amine] | –
– | – | 60 | ≤ 100 | [2H]C([2H])([2H])NCc1cc(-c2cccc(F)c2)n(S(=O)(=O)c2ccc(Cl)cc2)c1 [Example 10, N-((1-((4-chlorophenyl)sulfonyl)-5-(3-fluorophenyl)-1H-pyrrol-3-yl)methyl)methan-d3-amine] | –
14.2 | < 50 | – | – | [2H]C([2H])([2H])NCc1cc(-c2ccc(F)cc2F)n(S(=O)(=O)c2ccc(Br)cc2)c1 [Example 13, N-((1-((4-bromophenyl)sulfonyl)-5-(2,4-difluorophenyl)-1H-pyrrol-3-yl)methyl)methan-d3-amine] | –
– | – | 82 | ≤ 100 | [2H]C([2H])([2H])NCc1cc(-c2ccc(F)cc2F)n(S(=O)(=O)c2ccc(C)cc2)c1 [Example 16, N-((5-(2,4-difluorophenyl)-1-tosyl-1H-pyrrol-3-yl)methyl)methane-d3-amine] | –
– | – | 84 | ≤ 100 | [2H]C([2H])([2H])NCc1cc(-c2ccc(F)cc2F)n(S(=O)(=O)c2ccc(OC)cc2)c1 [Example 17, N-((5-(2,4-difluorophenyl)-1-((4-methoxyphenyl)sulfonyl)-1H-pyrrol-3-yl)methyl)methan-d3-amine] | –
41.5 | < 50 | – | – | [2H]C([2H])([2H])NCc1cc(-c2ccc(F)cc2)n(S(=O)(=O)c2ccc(F)cc2)c1 [Example 24, N-((5-(4-fluorophenyl)-1-((4-fluorophenyl)sulfonyl)-1H-pyrrol-3-yl)methyl)methan-d3-amine] | –
24.8 | < 50 | – | – | [2H]C([2H])([2H])NCc1cc(-c2ccc(F)cc2)n(S(=O)(=O)c2ccc(Br)cc2)c1 [Example 25, N-((1-((4-bromophenyl)sulfonyl)-5-(4-fluorophenyl)-1H-pyrrol-3-yl)methyl)methan-d3-amine] | –
13.2 | < 50 | – | – | [2H]C([2H])([2H])NCc1cc(-c2ccc(F)cc2)n(S(=O)(=O)c2ccc(Cl)cc2)c1 [Example 26, N-((1-((4-chlorophenyl)sulfonyl)-5-(4-fluorophenyl)-1H-pyrrol-3-yl)methyl)methan-d3-amine] | –
